Results taken from patent US7087616B2, “Pyrazolyl pyrimidines” (Bayer CropScience AG, priority 2001, dated 2006).
Like-named read-outs stand apart in the source and are kept apart here.

How the values were obtained:
[1] = logP determination by HPLC (EEC Directive 79/831 Annex V.A8); format: physicochemical; details: pH 2.3, HPLC reversed-phase column (C 18), 43° C.
Procedure: The stated logp values were determined in accordance with EEC Directive 79/831 Annex V.A8 by HPLC (High Performance Liquid Chromatography) using a reversed-phase column (C 18). Temperature: 43° C.
Mobile phases for the determination in the acidic range: 0.1% aqueous phosphoric acid, acetonitrile; linear gradient from 10% acetonitrile to 90% acetonitrile.
Calibration was carried out using unbranched alkane-2-ones (having 3 to 16 carbon atoms) with known logp values (determination of the logp values by the retention times using linear interpolation between two successive alkanones).

[2] = system: peach aphids (Myzus persicae); test: Myzus Test/Cabbage; format: in vivo; details: 144 h, read-out: Kill rate in % after 6d
Procedure: To produce a suitable preparation of active compound, 1 part by weight of active compound is mixed with the stated amounts of solvent and emulsifier, and the concentrate is diluted with emulsifier-containing water to the desired concentration.
Cabbage leaves (Brassica oleracea) which are heavily infested by peach aphids (Myzus persicae) are treated by being dipped into the preparation of active compound of the desired concentration.
After the desired period of time, the kill in % is determined. 100% means that all aphids have been killed; 0% means that none of the aphids have been killed.
Amounts of solvent, amounts of emulsifier, active compounds, active compound concentrations and test results are shown in the Tables below.

[3] = reversed-phase HPLC column (C 18), read-out: log P(pH 2.3)
[4] = 500 ppm, Table B 1, cabbage leaves dipped
[5] = reversed-phase HPLC column (C 18)
[6] = 500 ppm, Table B 2, cabbage leaves dipped

SMILES	chromatographic logP [1, 3]	further results
CCOC(=O)CSc1nccc(-n2nc(C)c(Cl)c2C)n1 [Example 16]	3.83	–
CCOC(=O)CSc1nccc(-n2cc(Br)cn2)n1	–	pest or weed control at 500 ppm [2, 4]: 100%
CCOC(=O)CSc1nccc(Br)n1 [Ethyl [(4-bromo-2-pyrimidinyl)thio]acetate]	–	chromatographic logP [1, 5]: 2.27
CCOC(=O)CSc1nccc(-n2ncc3ccccc32)n1 [Example 22]	3.34	–
O=C(CSc1nccc(-n2cccn2)n1)OCC(Cl)Cl	–	pest or weed control at 500 ppm [2, 6]: 100%
O=C(CSc1nccc(-n2cccn2)n1)OC(C(F)(F)F)C(F)(F)F	–	pest or weed control at 500 ppm [2, 6]: 100%
O=C(CSc1nccc(-n2cccn2)n1)OCC(F)(F)F	–	pest or weed control at 500 ppm [2, 6]: 100%
O=C(CSc1nccc(-n2cc(Br)cn2)n1)OCC(F)(F)C(F)(F)C(F)(F)F [Example 90]	–	chromatographic logP ([1]; read-out: log P(pH 2.3)): 4.34
O=C(CSc1nccc(-n2cccn2)n1)OCC(F)(F)C(F)(F)C(F)(F)F	–	pest or weed control at 500 ppm [2]: 100%
CCOC(=O)CSc1nccc(-n2cc(C(F)(F)F)cn2)n1 [drawing 188]	–	pest or weed control at 500 ppm [2, 6]: 100%
CCOC(=O)CSc1nccc(-n2ncc(SC(F)(F)F)c2C)n1 [Example 9]	4.08	–
CCOC(=O)CSc1nccc(-n2cc(SC(F)(F)C(F)F)cn2)n1 [Example 102]	3.45	–
CN(CC(=O)OCC(F)(F)C(F)(F)C(F)(F)F)c1nccc(-n2cc(Cl)cn2)n1 [Example 83]	–	chromatographic logP ([1]; read-out: log P(pH 2.3)): 4.46
CCOC(=O)CSc1nccc(-n2nc(C#N)c3ccccc32)n1 [Example 17]	3.64	–
O=C(CSc1nccc(-n2cccn2)n1)OCC(F)(F)C(F)(F)F	–	pest or weed control at 500 ppm [2, 6]: 100%
CC(OC(=O)CSc1nccc(-n2cc(Br)cn2)n1)C(F)(F)C(F)(F)F (centres unmarked) [Example 92]	4.3	–
COc1cnn(-c2ccnc(SCC(=O)OCC(F)(F)C(F)(F)C(F)(F)F)n2)c1 [Example 91]	–	chromatographic logP ([1]; read-out: log P(pH 2.3)): 3.78
O=C(O)CSc1nccc(-n2cc(Br)cn2)n1 [Example 76]	1.91	–
CC(OC(=O)CSc1nccc(-n2cc(Br)cn2)n1)C(F)(F)C(F)(F)C(F)(F)F (centres unmarked) [Example 94]	–	chromatographic logP ([1]; read-out: log P(pH 2.3)): 4.73
CCOC(=O)CSc1nccc(-n2cccn2)n1 [drawing 174]	–	pest or weed control at 500 ppm [2, 4]: 95%
COC(=O)CSc1nccc(-n2cc(Br)cn2)n1 [Example 7]	2.69	–
COc1cnn(-c2ccnc(SCC(=O)OC(C)C(F)(F)C(F)(F)C(F)(F)F)n2)c1 (centres unmarked) [drawing 192]	–	pest or weed control at 500 ppm [2]: 100%

SMILES	chromatographic logP [1, 3]	further results
CC(OC(=O)CSc1nccc(-n2cc(Cl)cn2)n1)C(F)(F)C(F)(F)C(F)(F)F (centres unmarked) [drawing 191]	–	pest or weed control at 500 ppm [2]: 100%
CCOC(=O)CSc1nccc(-n2ccc(-c3ccc(Cl)cc3)n2)n1 [Example 8]	4.5	–
COc1cnn(-c2ccnc(SCC(=O)O)n2)c1 [Example 84]	1.45	–
CCOC(=O)CSc1nccc(-n2cc(C)cn2)n1 [Example 1, ethyl {[4-(4-methyl-1H-pyrazol-1-yl)-2-pyrimidinyl]thio}acetate]	–	chromatographic logP [1, 5]: 2.28
COc1cnn(-c2ccnc(SCC(=O)O)n2)c1 [drawing 190]	–	pest or weed control at 500 ppm [2, 6]: 100%
CN(CC(=O)OCC(F)(F)C(F)(F)C(F)(F)C(F)F)c1nccc(-n2cccn2)n1 [Example 73]	–	chromatographic logP ([1]; read-out: log P(pH 2.3)): 3.46
CN(CC(=O)OCC(F)(F)C(F)(F)F)c1nccc(-n2cccn2)n1 [Example 60]	–	chromatographic logP ([1]; read-out: log P(pH 2.3)): 3.2
COc1cnn(-c2ccnc(SCC(=O)OC(C)C(F)(F)C(F)(F)C(F)(F)F)n2)c1 (centres unmarked) [Example 93]	–	chromatographic logP ([1]; read-out: log P(pH 2.3)): 4.14
CCOC(=O)CSc1nccc(-n2nccc2[N+](=O)[O-])n1 [Example 2, ethyl {[4-(5-nitro-1H-pyrazol-1-yl)-2-pyrimidinyl]thio}acetate]	–	chromatographic logP [1, 5]: 2.55
COc1cnn(-c2ccnc(N(C)CC(=O)OCC(F)(F)C(F)(F)C(F)(F)F)n2)c1	–	pest or weed control at 500 ppm [2]: 100%
O=C(CSc1nccc(-n2cccn2)n1)OCC(F)(F)C(F)(F)C(F)(F)C(F)F [Example 58]	–	chromatographic logP ([1]; read-out: log P(pH 2.3)): 3.42
O=C(CSc1nccc(-n2cccn2)n1)OCC(F)(F)C(F)F	–	pest or weed control at 500 ppm [2, 6]: 100%
CCOC(=O)CSc1nccc(-n2ncc3c2CCCC3)n1 [Example 18]	3.34	–
CC(OC(=O)CSc1nccc(-n2cc(Br)cn2)n1)C(F)(F)C(F)(F)C(F)(F)F (centres unmarked) [drawing 193]	–	pest or weed control at 500 ppm [2]: 100%
COc1cnn(-c2ccnc(N(C)CC(=O)OCC(F)(F)F)n2)c1	–	pest or weed control at 500 ppm [2, 6]: 100%
CN(CC(=O)OCC(F)(F)C(F)(F)C(F)(F)F)c1nccc(-n2cccn2)n1	–	pest or weed control at 500 ppm [2]: 100%
CCOC(=O)CN(C)c1nccc(-n2cccn2)n1 [Example 3, ethyl N-methyl-N-[4-(1H-pyrazol-1-yl)-2-pyrimidinyl]glycinate]	–	chromatographic logP [1, 5]: 2.1
CCOC(=O)CSc1nccc(-n2nc(C(F)(F)F)cc2C(F)(F)F)n1 [Example 15]	4.03	–
O=C(O)CSc1nccc(-n2cc(Cl)cn2)n1 [Example 82]	1.81	–
CCOC(=O)CSc1nccc(-n2cc(-c3ccc(Cl)cc3)cn2)n1	–	pest or weed control at 500 ppm [2, 6]: 100%
COc1cnn(-c2ccnc(SCC(=O)OCC(F)(F)F)n2)c1 [Example 101]	2.87	–

The next lines start with results.

chromatographic logP [1, 3]	SMILES	further results
3.15	CCOC(=O)CSc1nccc(-n2cc(OC(C)C)cn2)n1 [Example 20]	–
2.18	CCOC(=O)CSc1nccc(-n2cc(Br)c(N)n2)n1 [Example 41]	–
2.07	CCOC(=O)CSc1nccc(-n2cc(C(C)=O)cn2)n1 [Example 95]	–
2.89	CCOC(=O)CN(C)c1nccc(-n2cc(OC(C)C)cn2)n1 [Example 51]	–
3.11	CCOC(=O)CSc1nccc(-n2cc3ccccc3n2)n1 [Example 23]	–
1.82	CN(CC(=O)O)c1nccc(-n2cc(Cl)cn2)n1 [Example 63]	–
1.91	CN(CC(=O)O)c1nccc(-n2cc(Br)cn2)n1 [Example 62]	–
1.14	COc1cnn(-c2ccnc(N(C)CC(=O)O)n2)c1 [Example 61]	–
2.99	CCOC(=O)CSc1nccc(-n2cc(CC)cn2)n1 [Example 55]	–
2.32	CCOC(=O)CSc1nccc(-n2cc(C#N)cn2)n1 [Example 13]	–
2.53	CCOC(=O)CN(CC)c1nccc(-n2cccn2)n1 [Example 46]	–
3.57	CCOC(=O)CN(CC(C)C)c1nccc(-n2cccn2)n1 [Example 69]	–
2.79	CCOC(=O)CSc1nccc(-n2cc(C(=O)OCC)cn2)n1 [Example 47]	–
2.56	CCOC(=O)CSc1nccc(-n2cc([N+](=O)[O-])cn2)n1 [Example 12]	–
3.01	CCOC(=O)CSc1nccc(-n2cc(Cl)cn2)n1 [Example 19]	–
2.3	O=C(CSc1nccc(-n2cccn2)n1)OCCCl [Example 33]	–
2.71	C#Cc1cnn(-c2ccnc(SCC(=O)OCC)n2)c1 [Example 74]	–
0.94	CCOC(=O)CSc1nccc(-n2cc(N)cn2)n1 [Example 99]	–
2.51	CCOC(=O)CSc1nccc(-n2ccc(C)n2)n1 [Example 14]	–
3.27	CCOC(=O)CSc1nccc(-n2cc(C(F)(F)F)cn2)n1 [Example 64]	–
2.19	CCOC(=O)CSc1nccc(-n2cccn2)n1 [Example 5]	–
2.87	C=Cc1cnn(-c2ccnc(SCC(=O)OCC)n2)c1 [Example 96]	–
